Article PMC11251168, “Effect of ABCB1 most frequent polymorphisms on the accumulation of bictegravir in recombinant HEK293 cell lines” (Scientific Reports, 2024)
Structures can show the parent of a compound that is named as a salt. Values belong to the compound of their own block, whether it stands above or below them.

Assays:
[1] = system: ABCB1 (HEKWT, HEK1199A, HEKCGT, HEKTTT, HEKcontrol); test: Model functionality assay: Rhodamine123 intracellular fluorescence with or without zosuquidar; type: cell-based, human; conditions: Rh123 5 μM, 90 min
Protocol: 0.05 × 10^6 cells were seeded on poly-l-lysine coated 96-well plates and incubated overnight. The next day, Rh123 and zosuquidar dilutions were prepared from a stock solution. Cells were incubated for 90 min at 37 °C in the presence of Rh123 at 5 μM. The effect of ABCB1 inhibition was assessed by preincubation of the cells for 15 min with zosuquidar at a concentration of 0.2 μM. After incubation with Rh123, the supernatants were discarded. The cells were washed two times with ice-cold PBS. Sterile water was then added and detachment and lysis were performed through scratching of the well’s surface followed by sonication. Finally, fluorescence of Rh123 was analyzed by an iD3 Spectramax (Molecular Devices) fluorometer (c.1199G > A model validation) or a M3 Spectramax (Molecular Devices) fluorometer (haplotype model validation); excitation wavelength was set at 485 nm and emission at 530 nm. The solution was then used for protein quantification for results normalization.
Statistical analyses were carried out using GraphPad Prism version 9.5.1 for Mac OS X (GraphPad Software). For the functional assays, protein normalized intracellular fluorescences were compared after log-transformation using the natural logarithm (Ln), when required. Comparison was performed using a two-way ANOVA (α = 0.05) followed by a post-hoc analysis testing the effect of the inhibitor, with Bonferroni correction for multiple testing. For the intracellular bictegravir accumulation experiments, triplicates were performed during each experiment, and each experiment was performed thrice. For each experiment, protein normalized bictegravir intracellular concentrations were reported as fold-change of the mean of the protein normalized bictegravir intracellular concentration observed at the lowest bictegravir exposition concentration for HEKcontrol during the same experiment. Fold-change results from the three biological replicates were pooled and are shown on Figs. 3 and 4. Statistical analysis were performed on Ln transformed data that were pooled using the same principle as described here above. […]

[2] = system: ABCB1 c.1236C > T, c.2677G > T and c.3435C > T variants; conditions: cited from earlier work
[3] = biological target: T1, ABCB1 wild-type 1199G-1236C-2677G-3435C (Homo sapiens, UniProt P08183, S893A); test: Intracellular bictegravir accumulation in HEK293 cells overexpressing wild-type ABCB1 (HEKWT); type: in vitro ADME; conditions: 2 h incubation, 0.25-5 mg/l
T1 construct: expressed in transfected cells; host or cells: HEK293 (ATCC), pcDNA3.1 plasmid, G418 selection
Description: (§1) The generation and characterization of recombinant cell lines have been described in previous work conducted by our lab[26],[42]. Briefly, human embryonic kidney (HEK293) cells were purchased from American Type Culture Collection and transfected with plasmids carrying either wild-type ABCB1 1199G-1236C-2677G-3435C (thereafter named HEKWT) or several ABCB1 variant combinations obtained using site-directed mutagenesis, 1199A-1236C-2677G-3435C (thereafter named HEK1199A), 1199G-1236C-2677G-3435T (thereafter named HEKCGT) and 1199G-1236T-2677T-3435T (thereafter named HEKTTT); or an empty vector (thereafter named HEKcontrol). […] This model has previously been extensively characterized using flow cytometry, Western blot, and fluorescence microscopy, and validated using reference substrates and inhibitors of ABCB1[26],[42]. […]
(§2) 0.7 × 10^6 cells were seeded on poly-l-lysine-coated 12-well plates and incubated overnight. […] Cell suspensions were centrifugated for 10 min at 10,500×g, 4 °C and 100 μl of the supernatant was transferred to a vial for bictegravir liquid chromatography-tandem mass spectrometry (LC–MS/MS) quantification. […] This mixed solution was used for protein quantification for results normalization.
(§3) Bictegravir intracellular concentrations were determined using an adapted version of a previously published LC–MS/MS method on a Xevo TQS-micro tandem quadrupole mass spectrometer (Waters)[46]. […]

[4] = set-up: method as in PMID 36701274; conditions: cited from earlier work
[5] = set-up: method as in PMID 32868324, PMID 32199329; conditions: cited from earlier work
[6] = set-up: method as in PMID 36701274; conditions: thought to be mainly due to passive diffusion; cited from earlier work
[7] = set-up: method as in PMID 32868324, PMID 32199329; conditions: cited from earlier work; remark: listed apart in the source
ABCB1 = system: ABCB1; set-up: method as in PMID 36701274; conditions: ABCB1-overexpressing MDCK II transfected cells compared with non-transfected cells; cited from earlier work
[8] = system: ABCB1 1199G-1236T-2677T-3435T; test: Intracellular bictegravir accumulation in HEK293 cells overexpressing ABCB1 TTT haplotype (HEKTTT); type: in vitro ADME, human; conditions: 2 h incubation, 0.25-5 mg/l; Fig. 4
Description: (§4) The generation and characterization of recombinant cell lines have been described in previous work conducted by our lab[26],[42]. Briefly, human embryonic kidney (HEK293) cells were purchased from American Type Culture Collection and transfected with plasmids carrying either wild-type ABCB1 1199G-1236C-2677G-3435C (thereafter named HEKWT) or several ABCB1 variant combinations obtained using site-directed mutagenesis, 1199A-1236C-2677G-3435C (thereafter named HEK1199A), 1199G-1236C-2677G-3435T (thereafter named HEKCGT) and 1199G-1236T-2677T-3435T (thereafter named HEKTTT); or an empty vector (thereafter named HEKcontrol). HEKCGT was selected, in addition to HEKWT (carrying the CGC haplotype) and HEKTTT, to test the potential impact of c.3435C > T variant. HEK293 cells feature low endogenous levels of expression of ABCB1, ensuring that ABCB1 expression originates almost exclusively from the transfection process. This model has previously been extensively characterized using flow cytometry, Western blot, and fluorescence microscopy, and validated using reference substrates and inhibitors of ABCB1[26],[42]. As the same cells were used, only flow cytometry and functional tests using reference substrates and inhibitors were used to re-characterize them.
as §2
(§5) Bictegravir intracellular concentrations were determined using an adapted version of a previously published LC–MS/MS method on a Xevo TQS-micro tandem quadrupole mass spectrometer (Waters)[46]. […] The following ion transitions were monitored: 450.1 > 289.1 for bictegravir and 453.2 > 289.2 for bictegravir-15N, d2.
(§6) Total proteins were quantified in pellets using the BCA kit (Thermo Fisher Scientific) according to the manufacturer’s instructions. […]

[9] = biological target: T2, ABCB1 1199G-1236T-2677T-3435T (Homo sapiens, UniProt P08183); test: as above; type: in vitro ADME; conditions: 2 h incubation, 0.25-5 mg/l; Fig. 4
T2 construct: expressed in transfected cells; host or cells: HEK293 (ATCC), pcDNA3.1 plasmid, G418 selection
Description: as §4, §2, §5, §6

[10] = system: human peripheral blood mononuclear cells; set-up: method as in PMID 36806669; conditions: cited from earlier work
[11] = set-up: method as in PMID 36701274; conditions: cited from earlier work; remark: listed apart in the source
[12] = biological target: T3, ABCB1 (wild-type, HEK1199G cells; HEKcontrol cells) (Homo sapiens, UniProt P08183, S893A); test: Intracellular bictegravir accumulation with or without the ABCB1 inhibitor zosuquidar (Supplementary Fig. 2); type: in vitro ADME; conditions: bictegravir 2500 ng/mL, 120 min, zosuquidar 0.2 μM preincubation 15 min
T3 construct: expressed in transfected cells; host or cells: HEK293 (ATCC), pcDNA3.1 plasmid, G418 selection
Protocol: 0.7x10^6 cells were seeded on poly-l-lysine-coated 12-well plates and incubated overnight. The next day, bictegravir and zosuquidar dilutions were prepared from a stock solution. Cells were incubated for 120 minutes at 37 °C (5% CO2) in the presence of bictegravir at 2500 ng/mL. The effect of ABCB1 inhibition was assessed by preincubation of the cells for 15 minutes with zosuquidar at a concentration of 0.2 μM. Subsequently, plates were then centrifuged for 3 min at 4 °C, and maintained on ice throughout the experiment to block drug efflux. Cells were washed twice with 1 mL […]
Drug extraction was then performed as described in the Manuscript, in the Methods section describing Intracellular bictegravir accumulation experiments. Drug quantification and protein quantification were performed as described in the dedicated Methods sections.
Reported statistical analysis: ANOVA-2 with post-hoc Bonferroni correction test, performed on log- […]
(1 picture or pasted object on this page, not shown here)

[13] = biological target: T4, ABCB1 1199A-1236C-2677G-3435C (Homo sapiens, UniProt P08183, S400N/S893A); test: Intracellular bictegravir accumulation in HEK293 cells overexpressing ABCB1 1199A variant (HEK1199A); type: in vitro ADME; conditions: 2 h incubation, 0.25-5 mg/l, Fig. 3
T4 construct: expressed in transfected cells; host or cells: HEK293 (ATCC), pcDNA3.1 plasmid, G418 selection
Description: as §1, §2, §3

[14] = biological target: T5, ABCB1 1199G-1236C-2677G-3435T (Homo sapiens, UniProt P08183, S893A); test: Intracellular bictegravir accumulation in HEK293 cells overexpressing ABCB1 CGT haplotype (HEKCGT); type: in vitro ADME; conditions: 2 h incubation, 0.25-5 mg/l; Fig. 4
T5 construct: expressed in transfected cells; host or cells: HEK293 (ATCC), pcDNA3.1 plasmid, G418 selection
Description: as §1, §2, §3

[15] = system: ABCB1 c.1199G > A variant; conditions: cited from earlier work
PBMCs = test: Preliminary clinical pharmacokinetic assessments of intracellular accumulation in PBMCs; type: in vivo
[16] = zosuquidar 0.2 μM, 15 min preincubation

T4 sequence (P08183 whole entry S400N/S893A): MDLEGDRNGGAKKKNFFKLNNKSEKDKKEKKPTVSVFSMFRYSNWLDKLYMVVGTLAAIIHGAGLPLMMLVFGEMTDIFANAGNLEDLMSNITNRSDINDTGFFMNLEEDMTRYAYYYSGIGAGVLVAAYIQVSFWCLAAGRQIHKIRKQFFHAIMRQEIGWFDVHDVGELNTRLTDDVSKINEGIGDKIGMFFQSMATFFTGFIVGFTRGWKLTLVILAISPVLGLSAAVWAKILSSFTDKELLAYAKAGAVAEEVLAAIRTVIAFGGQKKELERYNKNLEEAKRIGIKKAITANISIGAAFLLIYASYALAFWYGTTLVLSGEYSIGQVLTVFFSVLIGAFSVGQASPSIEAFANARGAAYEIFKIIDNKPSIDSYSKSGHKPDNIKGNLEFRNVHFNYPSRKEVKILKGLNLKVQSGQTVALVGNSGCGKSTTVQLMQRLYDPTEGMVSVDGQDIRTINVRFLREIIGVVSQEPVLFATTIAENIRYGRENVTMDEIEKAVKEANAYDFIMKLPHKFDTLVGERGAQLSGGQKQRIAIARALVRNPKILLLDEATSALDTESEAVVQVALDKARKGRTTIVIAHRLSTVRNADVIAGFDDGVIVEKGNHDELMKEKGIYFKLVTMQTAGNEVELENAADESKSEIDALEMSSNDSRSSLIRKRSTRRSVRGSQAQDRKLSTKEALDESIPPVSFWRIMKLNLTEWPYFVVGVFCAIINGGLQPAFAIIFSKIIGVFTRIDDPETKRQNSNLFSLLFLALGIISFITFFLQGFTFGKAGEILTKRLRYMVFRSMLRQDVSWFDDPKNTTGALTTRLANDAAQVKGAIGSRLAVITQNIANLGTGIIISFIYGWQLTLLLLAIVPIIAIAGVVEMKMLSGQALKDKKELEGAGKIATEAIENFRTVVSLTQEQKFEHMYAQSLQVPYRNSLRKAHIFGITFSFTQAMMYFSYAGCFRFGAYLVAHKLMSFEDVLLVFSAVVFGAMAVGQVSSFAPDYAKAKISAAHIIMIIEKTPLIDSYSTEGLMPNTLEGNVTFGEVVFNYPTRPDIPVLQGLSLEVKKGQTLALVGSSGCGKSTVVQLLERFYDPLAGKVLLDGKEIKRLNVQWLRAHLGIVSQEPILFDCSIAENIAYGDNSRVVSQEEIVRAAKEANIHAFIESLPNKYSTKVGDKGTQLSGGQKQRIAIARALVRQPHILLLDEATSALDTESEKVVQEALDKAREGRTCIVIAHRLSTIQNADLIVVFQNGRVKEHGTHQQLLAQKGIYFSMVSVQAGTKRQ
T5 sequence (P08183 whole entry S893A): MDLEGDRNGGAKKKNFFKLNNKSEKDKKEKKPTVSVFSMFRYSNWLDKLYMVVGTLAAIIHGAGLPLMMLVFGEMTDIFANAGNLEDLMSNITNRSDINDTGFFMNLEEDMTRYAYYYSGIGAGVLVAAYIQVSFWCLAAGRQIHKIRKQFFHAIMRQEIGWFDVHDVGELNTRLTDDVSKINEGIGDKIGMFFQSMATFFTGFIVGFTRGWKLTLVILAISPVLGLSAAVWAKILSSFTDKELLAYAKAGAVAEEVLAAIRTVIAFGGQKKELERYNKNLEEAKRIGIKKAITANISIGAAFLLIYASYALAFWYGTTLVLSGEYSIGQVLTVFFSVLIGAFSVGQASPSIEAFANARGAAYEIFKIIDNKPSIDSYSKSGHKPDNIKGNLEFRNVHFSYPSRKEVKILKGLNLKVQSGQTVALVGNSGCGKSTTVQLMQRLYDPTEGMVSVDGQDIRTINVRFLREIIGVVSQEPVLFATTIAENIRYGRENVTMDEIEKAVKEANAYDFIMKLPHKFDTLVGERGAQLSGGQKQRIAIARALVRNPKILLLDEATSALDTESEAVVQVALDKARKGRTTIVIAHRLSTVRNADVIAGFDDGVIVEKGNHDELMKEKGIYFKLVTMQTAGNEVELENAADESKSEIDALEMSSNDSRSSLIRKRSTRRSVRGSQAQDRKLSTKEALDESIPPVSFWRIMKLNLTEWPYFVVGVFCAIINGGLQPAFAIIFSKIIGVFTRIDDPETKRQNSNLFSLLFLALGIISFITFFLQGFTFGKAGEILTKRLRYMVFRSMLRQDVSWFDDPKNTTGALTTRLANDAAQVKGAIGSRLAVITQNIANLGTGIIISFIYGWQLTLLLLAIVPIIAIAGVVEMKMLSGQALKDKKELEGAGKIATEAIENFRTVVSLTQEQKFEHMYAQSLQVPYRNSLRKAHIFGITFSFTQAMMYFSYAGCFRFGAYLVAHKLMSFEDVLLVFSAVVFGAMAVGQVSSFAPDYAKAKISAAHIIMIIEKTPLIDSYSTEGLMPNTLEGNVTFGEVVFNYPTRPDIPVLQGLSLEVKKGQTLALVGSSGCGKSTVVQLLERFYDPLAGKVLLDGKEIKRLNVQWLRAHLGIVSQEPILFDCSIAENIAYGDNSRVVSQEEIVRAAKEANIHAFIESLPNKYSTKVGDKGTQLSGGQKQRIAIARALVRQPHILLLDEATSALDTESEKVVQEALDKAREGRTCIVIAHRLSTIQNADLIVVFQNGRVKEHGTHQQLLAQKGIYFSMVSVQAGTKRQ
T1 sequence (P08183 whole entry S893A): as above
T3 sequence (P08183 whole entry S893A): as above

Compound: COC(=O)c1ccccc1-c1c2ccc(=N)cc-2oc2cc(N)ccc12 [Rh123, Rhodamine123]
- Rh123 intracellular fluorescence in cell lines overexpressing ABCB1 compared to HEKcontrol ([1]; HEKWT, HEK1199A, HEKCGT and HEKTTT, without zosuquidar): significantly lower

Compound: Cc1ccc(NC(=O)c2ccc(CN3CCN(C)CC3)cc2)cc1Nc1nccc(-c2cccnc2)n1 [imatinib]
- impact of c.1236C > T, c.2677G > T and c.3435C > T variants on anti-proliferative activity [2]: more pronounced effect

- bictegravir intracellular accumulation, HEKWT versus HEKcontrol ([3]; c.1199G > A experiments, protein-normalized, fold-change, Fig. 3): significantly lower
- bictegravir intracellular accumulation, HEKWT versus HEKcontrol ([3]; haplotype experiments, Fig. 4): significantly lower
- difference of bictegravir intracellular accumulation, HEKCGT vs HEKTTT [8]: did not show any significant difference
- difference of bictegravir intracellular accumulation, HEKWT vs HEKTTT [8]: did not show any significant difference
- bictegravir intracellular accumulation, HEKTTT versus HEKcontrol [9]: significantly lower
- change of bictegravir intracellular accumulation in the presence of zosuquidar, HEK1199G cells [12]: significant increase
- difference of bictegravir intracellular accumulation between HEKWT and HEK1199A [13]: did not show any significant difference
- bictegravir intracellular accumulation, HEK1199A versus HEKcontrol ([13]; protein-normalized, fold-change): significantly lower
- bictegravir intracellular accumulation, HEKCGT versus HEKcontrol [14]: significantly lower
- difference of bictegravir intracellular accumulation, HEKWT vs HEKCGT [14]: did not show any significant difference
Compound: O=C(NCc1c(F)cc(F)cc1F)c1cn2c(c(O)c1=O)C(=O)N1[C@H]3CC[C@H](C3)O[C@@H]1C2 [bictegravir]
- permeability (biopharmaceutical classification system) [4]: high permeability
- transepithelial permeability [4]: High
- plasma protein binding [5]: high
- oral bioavailability [6]: high
- ratios of cerebrospinal fluid over plasma bictegravir concentrations [7]: low
- transport by ABCB1 (ABCB1): active transport
- accumulation into human peripheral blood mononuclear cells [10]: limited
- biopharmaceutical classification system class [11]: class II
- solubility (biopharmaceutical classification system) [11]: low solubility

Compound: Cc1cn(-c2cc(NC(=O)c3ccc(C)c(Nc4nccc(-c5cccnc5)n4)c3)cc(C(F)(F)F)c2)cn1 [nilotinib]
- effect of c.1199G > A variant on transport [15]: affect the transport

- intracellular accumulation in PBMCs compared to bictegravir (PBMCs): higher
Compound: C[C@@H]1CCO[C@H]2Cn3cc(C(=O)NCc4ccc(F)cc4F)c(=O)c(O)c3C(=O)N12 [dolutegravir]

Compound: O[C@@H](COc1cccc2ncccc12)CN1CCN([C@@H]2c3ccccc3[C@@H]3[C@H](c4ccccc42)C3(F)F)CC1 [zosuquidar, zosuquidar hydrochloride]
- Rh123 intracellular fluorescence after pre-incubation with zosuquidar, cell lines overexpressing ABCB1 [1, 16]: increased to a level close to the level measured for HEKcontrol
- effect of the inhibitor on Rh123 fluorescence in the HEKcontrol batch used for haplotype functional characterization [1, 16]: small but significant effect

Compound: C=CC[C@@H]1/C=C(\C)C[C@H](C)C[C@H](OC)[C@H]2O[C@@](O)(C(=O)C(=O)N3CCCC[C@H]3C(=O)O[C@H](/C(C)=C/[C@@H]3CC[C@@H](O)[C@H](OC)C3)[C@H](C)[C@@H](O)CC1=O)[C@H](C)C[C@@H]2OC [tacrolimus]
- impact of c.1199G > A variant on intracellular accumulation ([15]; same cellular model): significant impact

Compound: Cc1nc(Nc2ncc(C(=O)Nc3c(C)cccc3Cl)s2)cc(N2CCN(CCO)CC2)n1 [dasatinib]
- effect of c.1199G > A variant on transport [15]: affect the transport
